Structures are written as SMILES. Converted amounts (≈) assume the structure as drawn. Some results are limits rather than exact numbers.

A short description of series [1]: Aqueous (kinetic) solubility by CAD. Type of series: physicochemical. The note with it: kinetic solubility measured by CAD. The method, then:
2.1 Aqueous solubility: This assay was conducted as previously described in [4].

Series [2] can be described thus: Intrinsic clearance in mouse liver microsomes. The note with it: mouse liver microsomal intrinsic clearance. Type of series: in vitro ADME. The method, then: 2.2 Intrinsic clearance: This assay was conducted as previously described in [5].
In general terms: Liver microsomes are vesicles of endoplasmic reticulum, rich in cytochrome P450 enzymes.

In a further series the test system is intracellular T. cruzi. More on the design: method as in PMID 25740547. As to conditions: HTS in NIH-3T3 fibroblasts; cited from earlier work.
The nature of series [3]: ChromLogD pH7.4 (chromatographic hydrophobicity index). The format is physicochemical. The note with it: pH 7.4; CHIpH7.4 × 0.0857–2; read-out: ChromlogDpH7.4.
Series [4] is described as follows: Blood exposure in the acute efficacy study. As to conditions: days 1 and 5; 50 mg/kg b.i.d. with 1-ABT. The format is in vivo, mouse. On the procedure: (§1) (Supplementary Information, Fig. S1). We tested 1 in a T. cruzi washout assay to assess the compound's ability to clear all parasites in vitro. In this experiment, T. cruzi, cultured in Vero cells were treated with compound 1 at 20- to 30-fold the EC50 for 8 days (with compound being re-supplemented after 4 days). After treatment, the culture medium containing compound 1 was removed, the cell monolayer was washed extensively and then incubated with fresh medium containing no compound 1. […] The same result was obtained in three independent experiments (Supplementary Information, Table S1). […] We therefore ran a 4-day PK study on 1, dosing at 50 mg/kg twice daily. As the intrinsic clearance was very high, compound 1 was co-dosed with 1-ABT (1-aminobenzotriazole) to inhibit CYP-mediated degradation and maximise exposure. […] As this was a novel series with an unknown mechanism of action, the PKPD drivers were unknown, so this coverage was considered suitable for progression to an animal model of Chagas disease. […]
Fig. 2 Results of acute T. cruzi infection efficacy study. […] 5 day dosing begins on day 14 (b) Quantification (Total Flux [p/s]) of combined ventral and dorsal bioluminescence for the mice shown in (c). […] (For interpretation of the references to colour in this figure legend, the reader is referred to the Web version of this article.)

Series [5] has as its system intracellular T. cruzi X10/7-E2Crimson. The series is described as follows: Rate-of-kill studies. Type of series: cell-based, Trypanosoma cruzi. As to conditions: compared with posaconazole (CYP51 inhibitor). The method, then: 1.3 Rate-of-kill studies: Experiments with intracellular T. cruzi X10/7-E2Crimson were carried out as previously described in [2].
For series [6], the system named is intracellular T. cruzi X10/7 A1 amastigotes. The series is described as follows: Intracellular T. cruzi assay. The format is cell-based, Trypanosoma cruzi. As to conditions: for EC50: Trypanosoma cruzi, potency against intracellular T. cruzi amastigotes, at least three independent replicates, standard deviations ≤0.2, read-out: T. cruzi (pEC50) (converted). The method, then:
1.1 Intracellular T. cruzi assay: Potency against intracellular T. cruzi X10/7 A1 amastigotes was determined as described previously with as sole modification that the compound treatment duration was increased from 72h to 96h.

The next series concerns the target T. cruzi CYP51 (Trypanosoma cruzi, UniProt Q7Z1V1). The series is described as follows: CYP51 assay. Type of series: biochemical. The note with it: read-out: T.cruzi CYP51 (pIC50) (converted). On the procedure: 1.4 CYP51 assay: Potency against T. cruzi CYP51 was determined as previously described in [3].
Series [7] has as its system T. cruzi infected Vero cells. The series is described as follows: Washout assay. Type of series: cell-based, Trypanosoma cruzi. The note with it: for Relapse Day: 8 days treatment. On the procedure:
(Supplementary Information, Fig. S1). We tested 1 in a T. cruzi washout assay to assess the compound's ability to clear all parasites in vitro. In this experiment, T. cruzi, cultured in Vero cells were treated with compound 1 at 20- to 30-fold the EC50 for 8 days (with compound being re-supplemented after 4 days). After treatment, the culture medium containing compound 1 was removed, the cell monolayer was washed extensively and then incubated with fresh medium containing no compound 1. […] The same result was obtained in three independent experiments (Supplementary Information, Table S1). […] We therefore ran a 4-day PK study on 1, dosing at 50 mg/kg twice daily. As the intrinsic clearance was very high, compound 1 was co-dosed with 1-ABT (1-aminobenzotriazole) to inhibit CYP-mediated degradation and maximise exposure. […] As this was a novel series with an unknown mechanism of action, the PKPD drivers were unknown, so this coverage was considered suitable for progression to an animal model of Chagas disease. Compound 1 was dosed twice daily at 50 mg/kg for 5 days in an acute Chagas disease mouse efficacy study. This mouse model, developed by the Kelly laboratory, is able to distinguish between benznidazole (clinically effective) and posaconazole (clinically ineffective).
1.2 Washout assay: Vero cells were infected overnight at MOI 5 with T. cruzi X10/7 A1 trypomastigotes in MEM media (Gibco) containing 10% FCS (Hyclone) followed by washing of the monolayer to remove any extracellular trypomastigotes. 24 h later, infected cells were trypsinised and plated in T25 flasks in presence of compounds at the indicated concentrations and incubated for 8 days in MEM media (Gibco) containing 1% FCS. Four days into the treatment the media was replaced with fresh compound-containing media. After the treatment period, monolayers were washed extensively. The cultures were then maintained, replacing media twice weekly, until trypomastigotes could be observed by light microscopy. Observations were carried out twice weekly for up to 60 days post washout.
Results for three independent washout experiments (experiment c is reported in the main manuscript). T. cruzi infected Vero cells were treated for 8 days at the indicated concentrations (compounds replenished after 4 days), followed by extensive washing to remove compounds and incubation until parasites were observed microscopically. ^a day after washout of compounds on which egressed parasites were detected first.

The next series has as its system T. cruzi. The series is described as follows: Acute Chagas disease mouse efficacy study (bioluminescence imaging). Type of series: in vivo, Trypanosoma cruzi. The method, then:
as §1
Fig. 2 Results of acute T. cruzi infection efficacy study. […] 5 day dosing begins on day 14 (b) Quantification (Total Flux [p/s]) of combined ventral and dorsal bioluminescence for the mice shown in (c). […] (For interpretation of the references to colour in this figure legend, the reader is referred to the Web version of this article.) […]

T. cruzi CYP51, sequence (Q7Z1V1 whole entry): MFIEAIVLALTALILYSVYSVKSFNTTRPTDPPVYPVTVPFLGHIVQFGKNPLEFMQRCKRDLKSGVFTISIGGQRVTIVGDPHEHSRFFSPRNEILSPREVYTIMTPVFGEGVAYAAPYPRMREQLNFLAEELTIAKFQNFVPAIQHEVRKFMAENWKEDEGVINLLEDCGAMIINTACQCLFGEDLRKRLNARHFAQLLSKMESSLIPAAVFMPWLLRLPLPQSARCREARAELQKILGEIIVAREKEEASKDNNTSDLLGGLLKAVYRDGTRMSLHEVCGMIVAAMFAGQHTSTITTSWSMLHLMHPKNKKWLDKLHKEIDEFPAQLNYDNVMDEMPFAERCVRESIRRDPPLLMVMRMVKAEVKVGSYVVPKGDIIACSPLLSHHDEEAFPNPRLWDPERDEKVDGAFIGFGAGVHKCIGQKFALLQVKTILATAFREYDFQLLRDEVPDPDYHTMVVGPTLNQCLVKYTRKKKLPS

As for `Cc1ccc(S(=O)(=O)Nc2ccc(CN3CCN(C(=O)c4cccc(C#N)c4)CC3)cc2)cc1` [TCMDC-143497], the concentration in solution in series [1] (solubility) was 85 µM (≈ 40.3 µg/mL). Also, in series [2], the “Mouse CLi” value was 30 mL/min/g. Moreover, the “T. cruzi pEC50 (reported potency)” value in the series with intracellular T. cruzi is on record as 6.4. The chromatographic logD in [3] turned out to be 4.8.

For the compound `Cc1ccc(S(=O)(=O)Nc2ccc(CN3CCN(C(=O)c4cccc(Cl)c4)CC3)cc2)cc1` [Compound 1, N-(4-((4-(3-chlorobenzoyl)piperazin-1-yl)methyl)phenyl)-4-methylbenzenesulfonamide], in series [1], the solubility – broadly, the concentration that dissolves in the medium under given conditions – came out at 38 µM (≈ 18.4 µg/mL). Moreover, the “Total blood exposure relative to in vitro EC99” value in [4] is recorded as “exceeded the in vitro EC99 for the duration of dosing”. For the same compound, the Rate-of-kill profile entry in series [5] is on record as “faster kill profile”. For the same compound, the “Mouse CLi” value in series [2] was greater than 50 mL/min/g. In addition, the EC50 in series [6] was 0.158 µM. Moreover, on T. cruzi CYP51, the IC50 was 20 µM. The “Time after washout until parasite relapse was observed” value in series [7] (20- to 30-fold the EC50 for 8 days, re-supplemented after 4 days) is listed as roughly 2 weeks. In addition, the “Relapse Day” value in [7] (experiment a, 5 µM, 32-fold EC50) worked out at 11 days; in series [7] (experiment b, 5.5 µM, 35-fold EC50), 14 days; in [7] (experiment c, 3.9 μM, 25-fold EC50, day after washout on which egressed parasites first detected), 11 days. Moreover, in the series on T. cruzi (50 mg/kg b.i.d. for 5 days with 1-ABT, cyclophosphamide 200 mg/kg i.p. days 28, 32, 36), the Outcome after immunosuppression result is given as “relapse is observed post immunosuppression”. In addition, the Parasite burden result in the series on T. cruzi (50 mg/kg b.i.d. for 5 days, 1-ABT 50 mg/kg pre-treatment, compared to vehicle) is recorded as “reduction in parasite burden compared to vehicle”. In addition, the chromatographic logD in [3] came out at 5.8.

With `O=C(Cn1ccnc1[N+](=O)[O-])NCc1ccccc1` [benznidazole], the “Relapse Day” value is 18 days in [7] (experiment a, replicate 1, 36 µM, 12.5-fold EC50); 14 days in [7] (experiment a, replicate 2, 36 µM, 12.5-fold EC50); 14 days in series [7] (experiment b, 36 µM, 12.5-fold EC50); 18 days in [7] (experiment c, 36 μM, 12.5-fold EC50); greater than 60 days in series [7] (experiment c, 144 μM, 50-fold EC50, observed up to 60 days).

The compound `COc1ccc(S(=O)(=O)Nc2ccc(CN3CCN(C(=O)c4ccc(C)c(Cl)c4)CC3)cc2)cc1` [Compound 15, N-(4-((4-(3-chloro-4-methylbenzoyl)piperazin-1-yl)methyl)phenyl)-4-methoxybenzenesulfonamide] returned a solubility in series [1] of 13 µM (≈ 6.68 µg/mL). In addition, the “Mouse CLi” value in series [2] is listed as greater than 50 mL/min/g. Further, in series [6], the EC50 is 1.26 µM. Also, the chromatographic logD in [3] stood at 5.8.

Consider `COc1ccc(S(=O)(=O)Nc2ccc(CN3CCN(C(=O)c4ccc(OC)c(Cl)c4)CC3)cc2)cc1` [Compound 13, N-[4-[[4-(3-chloro-4-methoxy-benzoyl)piperazin-1-yl]methyl]phenyl]-4-methoxy-benzenesulfonamide], for which the concentration in solution in series [1] (solubility) came to 18 µM (≈ 9.54 µg/mL). Further, the “Mouse CLi” value in [2] is on record as greater than 50 mL/min/g. The EC50 in [6] is 3.16 µM. Moreover, in series [3], the chromatographic logD stood at 5.1.

`COc1ccc(S(=O)(=O)Nc2ccc(CN3CCN(C(=O)c4ccccc4)CC3)cc2)cc1` [Compound 10, N-(4-((4-benzoylpiperazin-1-yl)methyl)phenyl)-4-methoxybenzenesulfonamide] registered a solubility in [1] of 116 µM (≈ 54 µg/mL). The “Mouse CLi” value in series [2] is listed as greater than 50 mL/min/g. For the same compound, the EC50 in [6] is 3.16 µM. Moreover, in series [3], the chromatographic logD is 4.6.

On to `CC#CC(=O)N1CCN(Cc2ccc(NS(=O)(=O)c3ccc(C)cc3)cc2)CC1` [Compound 26, N-(4-((4-(but-2-ynoyl)piperazin-1-yl)methyl)phenyl)-4-methylbenzenesulfonamide], for which the solubility in series [1] was determined as 367 µM (≈ 151 µg/mL). Also, the “Mouse CLi” value in series [2] is given as greater than 50 mL/min/g. Besides, the EC50 in series [6] was greater than 50.1 µM. Further, in series [6] (purified compound), the “Activity in the intracellular T. cruzi assay (in words)” value was “inactive”. Moreover, in series [3], the chromatographic logD was 4.4.

In the case of `COc1ccc(S(=O)(=O)Nc2ccc(CN3CCN(C(=O)C4CC(O)(C(F)(F)F)C4)CC3)cc2)cc1` (centres unmarked) [Compound 22, N-(4-((4-(3-hydroxy-3-(trifluoromethyl)cyclobutane-1-carbonyl)piperazin-1-yl)methyl)phenyl)-4-methoxybenzenesulfonamide], the solubility in series [1] is no less than 374 µM. Besides, the “Mouse CLi” value in series [2] worked out at 8.0 mL/min/g. For the same compound, in series [6], the EC50 was greater than 50.1 µM. For the same compound, in [3], the chromatographic logD is 4.3.

Regarding `CC[C@@H]([C@H](C)O)n1ncn(-c2ccc(N3CCN(c4ccc(OC[C@@H]5CO[C@@](Cn6cncn6)(c6ccc(F)cc6F)C5)cc4)CC3)cc2)c1=O` [posaconazole], the “Relapse Day” value in series [7] (experiment a, 0.2 µM, 50-fold EC50) amounted to 7 days; in series [7] (experiment b, 0.2 µM, 50-fold EC50), 11 days; in series [7] (experiment c, 0.1 μM, 25-fold EC50), 7 days.

The compound `Cc1ccc(S(=O)(=O)Nc2ccc(CN3CCN(C(=O)c4cc5ccccc5[nH]4)CC3)cc2)cc1` [Compound 23, N-(4-((4-(1H-indole-2-carbonyl)piperazin-1-yl)methyl)phenyl)-4-methylbenzenesulfonamide] yielded a solubility in series [1] of less than 1 µM. Also, in series [2], the “Mouse CLi” value stood at 40 mL/min/g. Moreover, the EC50 in series [6] was 0.2 µM. Also, the chromatographic logD in series [3] was 5.6.

(Values after article PMC11458808, “Identification and development of a series of disubstituted piperazines for the treatment of Chagas disease” (European Journal of Medicinal Chemistry, 2022).)
